Experimental data from patent publication US20050032861A1, “Oxazolidines containing a sulfonimid group as antibiotics” (priority 2001, published 2005).
Converted amounts (≈) assume the structure as drawn.

Legend:
Type in all cases: cell-based
[1] = system: Haemophilus influenzae; test: MIC, broth-dilution, fastidious Gram negative organisms; conditions: hemin and NAD, 24 h at 37° C.
Method: (§1) The following results were obtained on a standard in-vitro test system. The activity is described in terms of the minimum inhibitory concentration (MIC) determined by the broth-dilution technique with an inoculum size of 5×10^4 CFU/spot. Typically, compounds are active in the range 0.01 to 256 μg/ml. Fastidious Gram negative organisms were tested in Mueller-Hinton broth supplemented with hemin and NAD, grown aerobically for 24 h at 37° C., and with an innoculum of 5×10^4 CFU/well.

[2] = system: Moraxella catarrhalis; test: as above; conditions: hemin and NAD, 24 h at 37° C.
Method: as §1

[3] = system: Streptococcus pyogenes; test: MIC, broth-dilution, Streptococci in Mueller-Hinton broth with horse blood; conditions: 37° C. aerobically, 24 hours
Method: as §1, with “Streptococci” for “Fastidious Gram negative organisms”, “2.5% clarified lake horse blood” for “hemin and NAD, grown aerobically for 24 h at 37° C., and”, “10^4 CFU/well and an incubation temperature of 37° C. aerobically for 24 hours.” for “5×10^4 CFU/well.”

[4] = system: Streptococcus pneumoniae; test: as above; conditions: 37° C. aerobically, 24 hours
Method: as §1, with “Streptococci” for “Fastidious Gram negative organisms”, “2.5% clarified lake horse blood” for “hemin and NAD, grown aerobically for 24 h at 37° C., and”, “10^4 CFU/well and an incubation temperature of 37° C. aerobically for 24 hours.” for “5×10^4 CFU/well.”

[5] = system: Staphylococcus aureus MSQS; test: MIC, broth-dilution, Staphylococci in broth; conditions: Staphylococcus aureus MSQS (methicillin sensitive and quinolone sensitive); 37° C., 16-24 hours
Method: (§2) The following results were obtained on a standard in-vitro test system. The activity is described in terms of the minimum inhibitory concentration (MIC) determined by the broth-dilution technique with an inoculum size of 5×10^4 CFU/spot. Typically, compounds are active in the range 0.01 to 256 μg/ml.
(§3) Staphylococci were tested in broth using an inoculum of 5×10^4 CFU/spot and an incubation temperature of 37° C. for 16-24 hours.
(§4) • MSQS=methicillin sensitive and quinolone sensitive • MRQR=methincillin resistant and quinolone resistant

[6] = system: Staphylococcus aureus MRQR; test: MIC, broth-dilution, Staphylococci in broth; conditions: Staphylococcus aureus MRQR (methicillin resistant and quinolone resistant); 37° C., 16-24 hours
Method: as §2, §3, §4

MIC [1]: 8 µg/mL (≈ 19.5 µM) | MIC [2]: 8 µg/mL (≈ 19.5 µM) | MIC [3]: 2 µg/mL (≈ 4.88 µM) | MIC [4]: 2 µg/mL (≈ 4.88 µM) | MIC [5]: 1 µg/mL (≈ 2.44 µM) | MIC [6]: 8 µg/mL (≈ 19.5 µM)
Compound: N=S1(=O)CC=C(c2c(F)cc(N3C[C@H](Cn4ccnn4)OC3=O)cc2F)CC1 (stereo partly drawn) [Example 2, (5R)-3-[3,5-Difluoro-4-(1RS-1-imino-1-oxo-3,6-dihydrothiopyran-4-yl)-phenyl]-5-(1H-1,2,3-triazol-1-ylmethyl)-2-oxazolidinone]
